This note sets out measurements from patent US9687479B2, “Multisubstituted aromatic compounds as serine protease inhibitors” (VERSEON CORPORATION, priority 2013, dated 2017).

A word on the IC50: it is the concentration that inhibits the measured activity by half. The low end stands for greater potency, the high end for weaker potency.

The first test deals with Human KLKB1 (Homo sapiens (Human), UniProt P03952). Kind of test: KLKB1 kallikrein activity inhibition assay (chromogenic substrate S-2302). It is filed as biochemical. The settings on record: Table B. On the procedure: The KLKB1 kallikrein activity reported herein (e.g., Tables B, C, and D) was obtained as follows. Human KLKB1 protein was obtained from Enzyme Research Labs. […] KLKB1 was assayed in buffer containing 0.05 M Tris (pH 7.4), 0.01 M NaCl and 0.2% w/v PEG-8000. The final concentration of enzyme used was 3 nM KLKB1. […] All assays were performed in 96-well microtiter plates at room temperature (RT). […] Inhibitor IC50 values were determined by adding test compound as ten point, three-fold serial dilutions in buffer solution, as known in the art. The plate was read at 10 minutes after substrate addition. The IC50 was calculated by plotting the percent (%) inhibition against compound concentration and fitting the data to a constrained four parameter sigmoidal curve, as known in the art.
Human KLKB1, sequence (P03952 391-638 limits assumed): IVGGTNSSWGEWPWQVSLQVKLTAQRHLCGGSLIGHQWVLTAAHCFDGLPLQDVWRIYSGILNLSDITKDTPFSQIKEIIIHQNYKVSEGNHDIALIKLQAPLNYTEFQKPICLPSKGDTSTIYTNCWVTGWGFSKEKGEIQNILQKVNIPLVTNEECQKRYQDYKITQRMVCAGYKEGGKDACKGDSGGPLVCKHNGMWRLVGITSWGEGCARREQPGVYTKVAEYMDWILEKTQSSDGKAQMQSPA
Human KLKB1, sequence (P03952 20-390 partner limits assumed): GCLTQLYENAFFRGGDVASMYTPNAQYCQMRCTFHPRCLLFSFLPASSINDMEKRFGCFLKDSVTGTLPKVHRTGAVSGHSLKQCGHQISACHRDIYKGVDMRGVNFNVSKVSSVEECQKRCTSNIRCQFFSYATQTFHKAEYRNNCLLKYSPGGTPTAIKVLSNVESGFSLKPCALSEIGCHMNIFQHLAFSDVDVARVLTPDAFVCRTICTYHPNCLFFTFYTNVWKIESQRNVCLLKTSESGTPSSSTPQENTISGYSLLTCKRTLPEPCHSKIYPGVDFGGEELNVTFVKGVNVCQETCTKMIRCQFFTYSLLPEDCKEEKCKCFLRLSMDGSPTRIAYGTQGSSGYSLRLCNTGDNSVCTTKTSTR
In the case of `CCC(=O)n1nc(-c2ccccc2)cc1NCc1ccc(F)cc1` [Cmpd 268], the IC50 was over 100000 nM.

The compound `CC(C)(C)C(=O)n1nc(-c2ncccc2F)cc1NCc1ccc(Cl)s1` [Cmpd 269] had an IC50 of over 100000 nM. On to `CC(C)(C)C(=O)n1nc(-c2ccco2)cc1NCc1ccc(Cl)s1` [Cmpd 270], for which the concentration for half-maximal inhibition (IC50) was over 100000 nM. Same read-out and setting: the same measure for `CC(C)(CO)C(=O)n1nc(C2CCOCC2)c(F)c1NCc1ccc(Cl)s1` [Cmpd 273]: 10000 to 100000 nM.

For `CC(C)(CO)C(=O)n1nc(C2CCNCC2)c(F)c1NCc1ccc(Cl)s1` [Cmpd 274], the IC50 fell in the range of 1000 to 10000 nM. Same read-out and setting: the same measure for `CC(C)(CO)C(=O)n1nc(-c2ccccc2)c(F)c1NCc1ccc(Cl)s1` [Cmpd 275]: over 100000 nM; for `COc1ccccc1C(=O)n1nc(-c2ccccn2)cc1NCc1cccs1` [Cmpd 278]: over 100000 nM. Same read-out and setting: the result for `CC(C)(C)C(=O)n1nc(-c2ccccn2)c(F)c1NCc1ccccc1` [Cmpd 279] reads over 100000 nM.

The test is the same for the next values; noted with them: Table C.
`CCC(=O)n1nc(-c2cccnc2)nc1NCc1ccc(F)cc1` [Cmpd 7] gave an IC50 of 10000 to 100000 nM.

The compound `O=C(c1ccco1)n1nc(-c2ccccn2)nc1NCc1ccccc1` [Cmpd 8] gave an IC50 of 1000 to 10000 nM. The same measure, in the same setting: the same measure for `O=C(c1cccs1)n1nc(-c2ccccn2)nc1NCc1ccc(F)cc1` [Cmpd 10]: 1000 to 10000 nM; for `O=C(c1ccsc1)n1nc(-c2ccncc2)nc1NCc1ccc(F)cc1` [Cmpd 11]: 1000 to 10000 nM. Same read-out and setting: the same measure for `COc1ccccc1C(=O)n1nc(-c2cccnc2)nc1SCc1ccc(F)cc1` [Cmpd 14]: 100 to 1000 nM; for `COc1ccccc1C(=O)n1nc(-c2ccncn2)nc1NCc1ccccc1` [Cmpd 16]: 100 to 1000 nM; for `COc1ccccc1C(=O)n1nc(-c2cncnc2)nc1NCc1ccccc1` [Cmpd 17]: 100 to 1000 nM.

The next test deals with Human thrombin (Homo sapiens (Human), UniProt P00734). Kind of test: Thrombin protease activity inhibition assay (chromogenic substrate S-2238). To be noted: 3 nM thrombin, 125 μM S-2238, 10 min pre-incubation, RT. The class given is biochemical. An outline of the steps: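 Ten-point, three-fold serial dilutions of compound tested against 3 nM enzyme at RT in Tris buffer (0.05 M, pH 7.4) with 0.015 M NaCl and 0.01% PEG-8000.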
As to `O=C(Cn1cccc(-c2cc(NCc3ccc(Cl)s3)n[nH]2)c1=O)N1CCOCC1` [Cmpd 233, 3-(5-[(5-chlorothiophen-2-yl)methyl]amino-1H-pyrazol-3-yl)-1-[2-(morpholin-4-yl)-2-oxoethyl]-1,2-dihydropyridin-2-one], the IC50 fell in the range of 1000 to 10000 nM.

With `O=c1c(-c2cc(NCc3ccc(Cl)s3)[nH]n2)cccn1CCN1CCOCC1` [Cmpd 234, 3-(5-[(5-chlorothiophen-2-yl)methyl]amino-1H-pyrazol-3-yl)-1-[2-(morpholin-4-yl)ethyl]-1,2-dihydropyridin-2-one], the IC50 fell in the range of 10000 to 100000 nM.

`Cn1cccc(-c2cc(NCc3ccc(Cl)s3)n[nH]2)c1=O` [Cmpd 236, 3-(5-[(5-chlorothiophen-2-yl)methyl]amino-1H-pyrazol-3-yl)-1-methyl-1,2-dihydropyridin-2-one]: the IC50 lay within 10000 to 100000 nM. Same read-out and setting: the same measure for `CN(C)c1cc(-c2ccc[nH]c2=O)nn1C(=O)c1ccco1` [Cmpd 239, 3-[5-(dimethylamino)-1-[(furan-2-yl)carbonyl]-1H-pyrazol-3-yl]-1,2-dihydropyridin-2-one]: over 100000 nM; for `CN(C)c1cc(-c2cccn(Cc3ccccn3)c2=O)nn1C(=O)c1ccco1` [Cmpd 240, 3-[5-(dimethylamino)-1-[(furan-2-yl)carbonyl]-1H-pyrazol-3-yl]-1-(pyridin-2-ylmethyl)-1,2-dihydropyridin-2-one]: over 100000 nM.

As to `Nc1ccccc1C(=O)n1nc(-c2ccc[nH]c2=O)cc1NCc1ccc(Cl)s1` [Cmpd 241, 3-1-[(2-aminophenyl)carbonyl]-5-[(5-chlorothiophen-2-yl)methyl]amino-1H-pyrazol-3-yl-1,2-dihydropyridin-2-one], the IC50 is under 100 nM. For the compound `O=C(c1ccccc1Cl)n1nc(-c2cccn(Cc3cccnn3)c2=O)cc1NCc1ccc(Cl)s1` [Cmpd 245, 3-1-[(2-chlorophenyl)carbonyl]-5-[(5-chlorothiophen-2-yl)methyl]amino-1H-pyrazol-3-yl-1-(pyridazin-3-ylmethyl)-1,2-dihydropyridin-2-one], the IC50 was under 100 nM. On the same count and under the same terms, the same measure for `O=C(c1ccccc1Cl)n1nc(-c2cccn(Cc3ccccn3)c2=O)cc1NCc1ccc(Cl)s1` [Cmpd 246, 3-1-[(2-chlorophenyl)carbonyl]-5-[(5-chlorothiophen-2-yl)methyl]amino-1H-pyrazol-3-yl-1-(pyridin-2-ylmethyl)-1,2-dihydropyridin-2-one]: under 100 nM; for `O=C(c1ccccc1Cl)n1nc(-c2cccn(Cc3ncccn3)c2=O)cc1NCc1ccc(Cl)s1` [Cmpd 249, 3-1-[(2-chlorophenyl)carbonyl]-5-[(5-chlorothiophen-2-yl)methyl]amino-1H-pyrazol-3-yl-1-(pyrimidin-2-ylmethyl)-1,2-dihydropyridin-2-one]: under 100 nM.

Compound `O=C(c1ccccc1Cl)n1nc(-c2cccn(Cc3cccs3)c2=O)cc1NCc1ccc(Cl)s1` [Cmpd 250, 3-1-[(2-chlorophenyl)carbonyl]-5-[(5-chlorothiophen-2-yl)methyl]amino-1H-pyrazol-3-yl-1-(thiophen-2-ylmethyl)-1,2-dihydropyridin-2-one] returned an IC50 of under 100 nM. `O=C(c1ccccc1Cl)n1nc(-c2cccn(Cc3ccsc3)c2=O)cc1NCc1ccc(Cl)s1` [Cmpd 251, 3-1-[(2-chlorophenyl)carbonyl]-5-[(5-chlorothiophen-2-yl)methyl]amino-1H-pyrazol-3-yl-1-(thiophen-3-ylmethyl)-1,2-dihydropyridin-2-one] showed an IC50 of under 100 nM. Same read-out and setting: the same measure for `O=C(c1ccccc1Cl)n1nc(-c2cccn(CCN3CCOCC3)c2=O)cc1NCc1ccc(Cl)s1` [Cmpd 252, 3-1-[(2-chlorophenyl)carbonyl]-5-[(5-chlorothiophen-2-yl)methyl]amino-1H-pyrazol-3-yl-1-[2-(morpholin-4-yl)ethyl]-1,2-dihydropyridin-2-one]: under 100 nM; for `CC(C)(C)c1ccc(C(=O)n2nc(-c3ccc[nH]c3=O)cc2NCc2ccc(Cl)s2)cc1` [Cmpd 253, 3-1-[(4-tert-butylphenyl)carbonyl]-5-[(5-chlorothiophen-2-yl)methyl]amino-1H-pyrazol-3-yl-1,2-dihydropyridin-2-one]: under 100 nM. `Cn1cccc(-c2cc(NCc3ccc(Cl)s3)n(C(=O)c3ccc(C(C)(C)C)cc3)n2)c1=O` [Cmpd 254, 3-1-[(4-tert-butylphenyl)carbonyl]-5-[(5-chlorothiophen-2-yl)methyl]amino-1H-pyrazol-3-yl-1-methyl-1,2-dihydropyridin-2-one] returned an IC50 of under 100 nM. Same read-out and setting: the same measure for `Nc1cc(-c2ccc[nH]c2=O)nn1C(=O)c1ccco1` [Cmpd 255, 3-5-amino-1-[(furan-2-yl)carbonyl]-1H-pyrazol-3-yl-1,2-dihydropyridin-2-one]: 1000 to 10000 nM. On the same count and under the same terms, the result for `Nc1cc(-c2cccn(Cc3ccccn3)c2=O)nn1C(=O)c1ccco1` [Cmpd 256, 3-5-amino-1-[(furan-2-yl)carbonyl]-1H-pyrazol-3-yl-1-(pyridin-2-ylmethyl)-1,2-dihydropyridin-2-one] reads 1000 to 10000 nM; that for `CCOC(=O)Cn1cccc(-c2cc(NCc3ccc(Cl)s3)n(C(=O)C(C)(C)C)n2)c1=O` [Cmpd 257, ethyl 2-[3-(5-[(5-chlorothiophen-2-yl)methyl]amino-1-(2,2-dimethylpropanoyl)-1H-pyrazol-3-yl)-2-oxo-1,2-dihydropyridin-1-yl]acetate], under 100 nM.

Compound `CCOC(=O)Cn1cccc(-c2cc(NCc3ccc(Cl)s3)n(C(=O)c3ccccc3OC)n2)c1=O` [Cmpd 258, ethyl 2-[3-(5-[(5-chlorothiophen-2-yl)methyl]amino-1-[(2-methoxyphenyl)carbonyl]-1H-pyrazol-3-yl)-2-oxo-1,2-dihydropyridin-1-yl]acetate] came in with a concentration for half-maximal inhibition (IC50) of under 100 nM. Still for that read-out and setting: the same measure for `CCOC(=O)Cn1cccc(-c2cc(NCc3ccc(Cl)s3)n(C(=O)c3ccoc3)n2)c1=O` [Cmpd 259, ethyl 2-[3-(5-[(5-chlorothiophen-2-yl)methyl]amino-1-[(furan-3-yl)carbonyl]-1H-pyrazol-3-yl)-2-oxo-1,2-dihydropyridin-1-yl]acetate]: under 100 nM; for `CCOC(=O)Cn1cccc(-c2cc(NCc3ccc(Cl)s3)n[nH]2)c1=O` [Cmpd 260, ethyl 2-[3-(5-[(5-chlorothiophen-2-yl)methyl]amino-1H-pyrazol-3-yl)-2-oxo-1,2-dihydropyridin-1-yl]acetate]: 10000 to 100000 nM. For `CC(C)(C)OC(=O)Cn1cccc(-c2cc(NCc3ccc(Cl)s3)n(C(=O)C(C)(C)C)n2)c1=O` [Cmpd 261, tert-butyl 2-[3-(5-[(5-chlorothiophen-2-yl)methyl]amino-1-(2,2-dimethylpropanoyl)-1H-pyrazol-3-yl)-2-oxo-1,2-dihydropyridin-1-yl]acetate], the IC50 was under 100 nM. Compound `COc1ccccc1C(=O)n1nc(-c2cccn(CC(=O)OC(C)(C)C)c2=O)cc1NCc1ccc(Cl)s1` [Cmpd 262, tert-butyl 2-[3-(5-[(5-chlorothiophen-2-yl)methyl]amino-1-[(2-methoxyphenyl)carbonyl]-1H-pyrazol-3-yl)-2-oxo-1,2-dihydropyridin-1-yl]acetate] registered a 50% inhibitory concentration (IC50) of under 100 nM. Same read-out and setting: the same measure for `CC(C)(C)OC(=O)Cn1cccc(-c2cc(NCc3ccc(Cl)s3)n(C(=O)c3ccoc3)n2)c1=O` [Cmpd 263, tert-butyl 2-[3-(5-[(5-chlorothiophen-2-yl)methyl]amino-1-[(furan-3-yl)carbonyl]-1H-pyrazol-3-yl)-2-oxo-1,2-dihydropyridin-1-yl]acetate]: under 100 nM; for `CC(C)(C)OC(=O)Cn1cccc(-c2cc(NCc3ccc(Cl)s3)[nH]n2)c1=O` [Cmpd 264, tert-butyl 2-[3-(5-[(5-chlorothiophen-2-yl)methyl]amino-1H-pyrazol-3-yl)-2-oxo-1,2-dihydropyridin-1-yl]acetate]: over 100000 nM.
